Consider 2 compounds from PMC10932281, “A Combination of β-Aescin and Newly Synthesized Alkylamidobetaines as Modern Components Eradicating the Biofilms of Multidrug-Resistant Clinical Strains of Candida glabrata” (International Journal of Molecular Sciences, 2024).

For data set [1], the system named is C. glabrata 2586 clinical strain. As to the kind of experiment: MIC90/MFC, EUCAST broth microdilution. It is filed as cell-based, Candida glabrata.
The test system of a further data set is sheep red blood cells. Put plainly: Hemolysis assay. It is filed as cell-based. Here is the method:
This test was performed according to a modified method. The hemolytic activity of the compounds was determined using sheep red blood cells. The blood was centrifuged (2000 RPM; 15 min) and rinsed 3 times with PBS. A total of 25 µL of erythrocytes for each sample were added to 500 µL of PBS to obtain the final concentration for the newly synthesized AABs: 0.25 µM, 0.5 µM; 1 µM, 2 µM; and 3 µM, and for β-AE, obtaining the following final concentrations: 100 µg/mL; 250 µg/mL; 500 µg/mL; 750 µg/mL; and 1000 µg/mL. The negative control (C−) consisted of erythrocytes suspended in PBS, and the positive control consisted of erythrocytes suspended in a 1% SDS solution. The samples were incubated for 2 h at 37 °C with shaking at 140 RPM. After this time, the blood cells were centrifuged (10 min; 2500 RPM), and 300 μL of the supernatant was transferred into a 96-well titration plate. Absorbance measurements were performed at a wavelength of λ = 540 nm. Measurements were performed in 10 repetitions. Finally, the values that were obtained from the samples treated with the test compound (OD test) were normalized relative to the positive (100% lysis; OD (C+)) and negative (untreated; OD (C−)) control samples to give the hemolysis ratio (HR) by using the following equation: HR (%) = OD test−OD (C−)/OD (C+) − OD (C−) × 100%.

The subject of data set [2] is C. glabrata 2853 clinical strain. As to the kind of experiment: MIC90/MFC, EUCAST broth microdilution. It is filed as cell-based, Candida glabrata.
The test system of a further data set is C. glabrata 2853 biofilm. Put plainly: Biofilm eradication on polystyrene, fluorescence microscopy (Syto9/PI). It is filed as cell-based, Candida glabrata. On the procedure: (§1) C. glabrata biofilm eradication on polystyrene surfaces was assessed according to the following procedure: 1 mL of C. glabrata culture, 10^6 CFU/mL in RMPI 1640 MOPS-buffered medium, was pipetted into the wells of a 48-well adherent plate. Cultures were incubated at 37 °C for 72 h with shaking (400 RPM). […] Non-treated cells were used as the control. This experiment was carried out in triplicate. The analysis of the biofilm eradication of C. glabrata strains on polystyrene surfaces was performed using fluorescence microscopy (FM). For further information, see Section 4.12. below.
(§2) The 72 h biofilm of C. glabrata strains on polystyrene surfaces was stained on 48-well adherent plates with 1 µL of propidium iodide (Ex λ = 543 nm/Em λ = 617 nm) and 1 µL of SYTO9 (Ex λ = 488 nm/Em λ = 503 nm) for 30 min using a LIVE/DEAD BacLight Bacterial Viability Kit (Thermo Fisher Scientific, Waltham, MA USA). Imaging was performed using a fluorescence microscope (FM) BX51 (Olympus, Tokyo, Japan) equipped with an Orca Flash 40 camera (Hamamatsu, Hamamatsu City, Japan) and 10× objective Plan APO. Scale bar = 100 µm. Detailed computer qualitative and quantitative analyses of the obtained pictures were performed by estimating the coverage area on the polystyrene plate (the percentage of the area occupied by the fungal biofilm). The cell viability analysis was performed by calculating the fluorescence intensity of the dyes (Syto9/PI) used. The acquired images were processed and analyzed using Fiji/ImageJ software ver. 1.53c (NIH, Bethesda, MD, USA). First, maximum intensity projections (MIPs) were obtained from stacks of images. The areas of the binary images were transferred into the original live and dead channel MIP images. The mean fluorescence intensities of all detected objects per field of view were calculated using ImageJ’s Analyze Threshold function (Software: ImageJ version 1.53 from Softonic).

The next data set deals with C. glabrata 2586 biofilm. The description is as above. It counts as cell-based, Candida glabrata. On the procedure: as §1, §2
In data set [3] the test system is C. glabrata ATCC 90030 biofilm. Described as above. It is filed as cell-based, Candida glabrata. On the procedure: as §1, §2
The subject of data set [4] is C. glabrata ATCC 90030. As to the kind of experiment: MIC90/MFC, EUCAST broth microdilution. It counts as cell-based, Candida glabrata.
The test system of data set [5] is Balb/3T3 mouse embryonic fibroblasts. As to the kind of experiment: Cell proliferation assay (MTT test). It is filed as cell-based. The arrangement: Survival of the tested cell line: dose or concentration left out as unconfirmed. The settings on record: 24 h. Here is the method: Balb/3T3 (ATCC CCL-163) mouse embryonic fibroblasts were cultured in DMEM medium supplemented with 10% fetal bovine serum, 1 mM L-glutamine, and a 1% penicillin/streptomycin solution and were used for our cytotoxicity studies. The cells were cultured at 37 °C and 5% CO2 until the cell density of 10^6 mL^−1 was obtained. Such cells were then seeded in 24-well tissue microplates (2 × 10^4 cells per well) and allowed to adhere overnight under the abovementioned conditions. Cytotoxicity tests were carried out on the cells prepared in this way.
The newly synthesized AABs (C9, C11, C13, and C15) were selected based on previous studies. They were analyzed at the concentrations of 0.25, 0.5, 1, 2, and 3 µM. […] The BALB-3T3 cells were treated with the prepared mixtures, dissolved in a complete cell culture medium, and then incubated for 24 h under the abovementioned conditions. Three independent replicates were performed for each combination of compounds.
The cytotoxic effect of the tested compounds in combination with β-AE was evaluated by measuring mitochondrial dehydrogenase activity using the MTT assay. After a 24 h incubation period, the medium supplemented with the 1mM MTT solution was added to each well. The cultures were continued for another 4 h under the conditions enriched with 5% CO2. After this time, the supernatant was collected, and MTT formazan was extracted from the cells using DMSO. The reaction was then stopped with Sörensen buffer (0.1 mol/L glycine; 0.1 mol/L NaCl; and pH 10.5). The percentage of cytotoxicity was calculated by comparing the absorbance values (λ = 560 nm) of the test sample to the control sample, which was untreated fibroblast cells. In the test performed, the negative control (C−) (sample not treated; PBS added) and positive control (C+) were fibroblast cells treated with 1% SDS [60].

Data set [6] has as its system C. glabrata ATCC 90030. As to the kind of experiment: Interaction of AABs (3 µM) with antifungal agents, modified checkerboard. It counts as cell-based, Candida glabrata.
The mark [7] stands for this setting: Nakaseomyces glabratus, AAB alone, read-out: MIC converted to.

In brackets after ≈: the same amount, converted by molar mass. Like-named read-outs stand apart in the source and are kept apart here.

One may read the MIC as the lowest concentration found to suppress growth. In general, viability refers to a read-out of living cells in per cent, often relative to untreated cells. In the case of `CCCCCCCCCC(=O)N(C)CCC[N+](C)(C)CC(=O)[O-]` [C9], the MIC90 in data set [1] (AAB alone) is 3 µM/mL; in data set [2] (AAB alone), 1 µM/mL; against C. glabrata ATCC 90030 [4] (ATCC 90030, AAB alone), 3 µM/mL. The MIC in data set [1] (setting [7]) worked out at 985 µg/mL (≈ 3000 µM); in [2] (setting [7]), 328 µg/mL (≈ 1000 µM); with C. glabrata ATCC 90030 [4] (Nakaseomyces glabratus, ATCC90030, reference strain, AAB alone, read-out: MIC converted to) it was 985 µg/mL (≈ 3000 µM). For the same compound, the Hemolysis entry in the data set on sheep red blood cells (all concentrations tested (0.25 up to 3 µM)) is recorded as “not hemolytic at all concentrations tested”. Also, the Biofilm surface area in the data set on C. glabrata 2853 biofilm (C9 combined with β-AE, optimal concentration configuration, control 84.52%) came to 1.12%; with C. glabrata 2586 biofilm (C9 combined with β-AE, optimal concentration configuration, control 73.17%), 2.1%; in data set [3] (C9 combined with β-AE, optimal concentration configuration, control 88.77%), 1.37%. Besides, the “Percentage of live cells” value with C. glabrata 2853 biofilm (C9 in combination with β-AE, 72 h, control 97.46%) is 3.33%; in the data set on C. glabrata 2586 biofilm (C9 in combination with β-AE, 72 h, control 97.99%), 1.93%; in data set [3] (C9 in combination with β-AE, 72 h, control 98.35%), 1.64%. The viability at 1 µM in the data set on C. glabrata 2853 biofilm (Nakaseomyces glabratus, 2853BIOFILM, AAB alone 1 μM, 72 h, read-out: Biofilm Viability [%] 2853 Live) came to 82.2%; with C. glabrata 2586 biofilm (Nakaseomyces glabratus, 2586BIOFILM, AAB alone 1 μM, 72 h, read-out: Biofilm Viability [%] 2586 Live), 3.28%; in data set [3] (Nakaseomyces glabratus, ATCC90030, AAB alone 1 μM, 72 h, read-out: Biofilm Viability [%] 90030 Live) it was 83.6%. Further, the viability at 2 µM in the data set with C. glabrata 2853 biofilm (Nakaseomyces glabratus, 2853BIOFILM, AAB alone 2 μM, 72 h, read-out: Biofilm Viability [%] 2853 Live) worked out at 76.2%; in the data set with C. glabrata 2586 biofilm (Nakaseomyces glabratus, 2586BIOFILM, AAB alone 2 μM, 72 h, read-out: Biofilm Viability [%] 2586 Live), 3.01%; in data set [3] (Nakaseomyces glabratus, ATCC90030, AAB alone 2 μM, 72 h, read-out: Biofilm Viability [%] 90030 Live) it was 23.8%. For the same compound, the viability at 3 µM in the data set on C. glabrata 2853 biofilm (Nakaseomyces glabratus, 2853BIOFILM, AAB alone 3 μM, 72 h, read-out: Biofilm Viability [%] 2853 Live) is 66.4%; in the data set on C. glabrata 2586 biofilm (Nakaseomyces glabratus, 2586BIOFILM, AAB alone 3 μM, 72 h, read-out: Biofilm Viability [%] 2586 Live) it was 2.52%; in [3] (Nakaseomyces glabratus, ATCC90030, AAB alone 3 μM, 72 h, read-out: Biofilm Viability [%] 90030 Live) it was 21.4%. In addition, the Surviving cells in [5] (0.25 to 3 µM/mL) amounted to 100%.

As usually defined, the MFC is the smallest concentration meeting the test's criterion for killing the fungus. Regarding β-aescin, in the data set on C. glabrata ATCC 90030 [6] (C9 3 µM, |MF| = MIC90 alone/MIC90 with AAB), the “Multiplicity factor (MF) with C9” value was determined as 1. Further, in the data set with C. glabrata ATCC 90030 [6] (C9 at constant 3 µM, dilutions in µg/mL), the “MIC90 of antimycotic combined with C9” value was determined as 128. In addition, the “Multiplicity factor (MF) with C11” value in the data set on C. glabrata ATCC 90030 [6] (C11 3 µM) is recorded as 1. For the same compound, the “MIC90 of antimycotic combined with C11” value in the data set on C. glabrata ATCC 90030 [6] (C11 at constant 3 µM, dilutions in µg/mL) was 128. Besides, the “Multiplicity factor (MF) with C13” value with C. glabrata ATCC 90030 [6] (C13 3 µM) was 1. Moreover, in the data set on C. glabrata ATCC 90030 [6] (C13 at constant 3 µM, dilutions in µg/mL), the “MIC90 of antimycotic combined with C13” value was found to be 128. Besides, in the data set with C. glabrata ATCC 90030 [6] (C15 3 µM), the “Multiplicity factor (MF) with C15” value was determined as 1. Also, the “MIC90 of antimycotic combined with C15” value with C. glabrata ATCC 90030 [6] (C15 at constant 3 µM, dilutions in µg/mL) is listed as 128. The MFC in [1] is on record as 256 µg/mL; in data set [2], 128 µg/mL; against C. glabrata ATCC 90030 [4] (ATCC 90030), 256 µg/mL. In addition, the MIC90 is reported as 256 µg/mL in data set [1], 128 µg/mL in data set [2] and 128 µg/mL against C. glabrata ATCC 90030 [4] (ATCC 90030). The Hemolysis result in the data set with sheep red blood cells (100 up to 1000 µg/mL, 2 h, 37 °C) was “hemolytic at all concentrations tested”. Also, the “Biofilm Viability [%] 2853 Live” value in the data set with C. glabrata 2853 biofilm (1 MIC β-AE, 72 h) is on record as 92.13%. The “Area of the biofilm” value with C. glabrata 2853 biofilm (β-AE 1 × MIC, 72 h, control 84.52%, listed as β-AE) worked out at 45.63%; in the data set with C. glabrata 2586 biofilm (β-AE 1 × MIC, 72 h, control 73.17%, listed as β-AE), 59.3%; in [3] (β-AE 1 × MIC, 72 h, control 88.77%), 68.98%. In the data set with C. glabrata 2586 biofilm (1 MIC β-AE, 72 h), the “Biofilm Viability [%] 2586 Live” value worked out at 9.33%. Moreover, the “Biofilm Viability [%] 90030 Live” value in [3] (1 MIC β-AE, 72 h) was found to be 76.70%. In addition, in data set [5] (64–512), the “Survival of the tested cell line” value was 83–85%.
